Experimental data from patent US20230271954A1 (Gossamer Bio Services, Inc., priority 2020, published 2023).

Assays:
DGKζ = target: T1, DGKζ (Homo sapiens, UniProt Q13574); assay: DGKζ biochemical assay (ADP-Glo); conditions: read-out: DGK ζ IC50
T1 construct: purchased Carna 12-110

DGKα = DGKα (Homo sapiens, UniProt P23743); assay: DGKα biochemical assay (ADP-Glo); conditions: read-out: DGK α IC50
Procedure, shortened: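 ADP-Glo kinase assay using OAG/PS (1:2) lipid substrate, sonicated, in HEPES pH 7.0 buffer with MgCl2, CaCl2, DTT, BSA, Triton X-100. Enzyme preincubated with compound 30 min at RT; substrate with ATP (DGKα: 400 μM) added, 45 min RT. Luminescence read; % inhibition vs DMSO and no-enzyme controls.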

T1 sequence (Q13574 1-929 isoform Q13574-4): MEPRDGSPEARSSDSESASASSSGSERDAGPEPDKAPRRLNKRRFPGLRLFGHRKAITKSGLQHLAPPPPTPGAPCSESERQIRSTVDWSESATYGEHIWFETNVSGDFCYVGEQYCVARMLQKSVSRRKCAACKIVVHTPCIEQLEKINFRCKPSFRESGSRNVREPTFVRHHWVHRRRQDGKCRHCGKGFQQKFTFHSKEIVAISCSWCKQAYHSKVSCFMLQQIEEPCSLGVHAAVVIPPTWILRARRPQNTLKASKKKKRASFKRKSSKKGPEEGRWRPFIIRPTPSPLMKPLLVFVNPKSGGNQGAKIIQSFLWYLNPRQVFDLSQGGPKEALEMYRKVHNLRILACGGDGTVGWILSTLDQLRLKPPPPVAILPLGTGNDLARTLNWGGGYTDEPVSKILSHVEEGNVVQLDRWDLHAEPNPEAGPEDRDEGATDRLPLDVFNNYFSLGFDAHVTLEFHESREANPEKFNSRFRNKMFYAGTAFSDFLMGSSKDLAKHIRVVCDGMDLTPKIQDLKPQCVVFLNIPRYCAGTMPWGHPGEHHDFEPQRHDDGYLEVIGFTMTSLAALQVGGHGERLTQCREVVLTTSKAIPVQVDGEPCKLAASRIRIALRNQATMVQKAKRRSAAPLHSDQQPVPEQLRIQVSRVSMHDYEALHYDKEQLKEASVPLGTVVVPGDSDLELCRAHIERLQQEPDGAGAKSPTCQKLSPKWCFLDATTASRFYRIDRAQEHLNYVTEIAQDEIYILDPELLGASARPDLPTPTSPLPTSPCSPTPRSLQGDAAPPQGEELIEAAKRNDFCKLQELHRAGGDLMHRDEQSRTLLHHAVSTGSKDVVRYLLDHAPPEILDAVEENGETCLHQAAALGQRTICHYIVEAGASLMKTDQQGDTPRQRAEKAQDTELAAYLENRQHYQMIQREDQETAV
Sequence of DGKα (P23743 whole entry): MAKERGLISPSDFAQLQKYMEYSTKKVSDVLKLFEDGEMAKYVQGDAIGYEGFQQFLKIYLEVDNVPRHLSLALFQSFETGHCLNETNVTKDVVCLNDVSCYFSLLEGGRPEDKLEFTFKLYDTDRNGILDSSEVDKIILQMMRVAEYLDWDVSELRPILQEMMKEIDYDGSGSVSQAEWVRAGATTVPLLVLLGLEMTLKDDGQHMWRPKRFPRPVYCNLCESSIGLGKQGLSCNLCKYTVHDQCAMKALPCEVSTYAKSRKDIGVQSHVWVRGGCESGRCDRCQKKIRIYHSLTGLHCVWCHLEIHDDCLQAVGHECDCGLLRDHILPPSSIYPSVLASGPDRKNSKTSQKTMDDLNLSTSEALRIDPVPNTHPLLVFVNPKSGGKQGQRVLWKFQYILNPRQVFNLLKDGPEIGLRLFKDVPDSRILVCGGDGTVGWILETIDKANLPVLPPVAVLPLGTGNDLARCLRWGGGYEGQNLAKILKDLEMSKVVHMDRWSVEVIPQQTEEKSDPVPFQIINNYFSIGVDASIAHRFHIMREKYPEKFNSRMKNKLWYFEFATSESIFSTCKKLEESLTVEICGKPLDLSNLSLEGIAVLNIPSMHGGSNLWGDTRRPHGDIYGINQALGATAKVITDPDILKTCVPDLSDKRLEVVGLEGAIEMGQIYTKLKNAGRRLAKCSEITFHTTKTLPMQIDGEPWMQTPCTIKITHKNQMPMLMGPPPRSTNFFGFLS

Row | SMILES | IC50 (DGKζ) | IC50 (DGKα)
1 | COc1cc(N(CC2CC2)[C@H]2CC[C@@H](N(C)c3cc(=O)n(C)c4ccc(C#N)nc34)CC2)cc(OC)c1F [Example 124, cis-8-((-4-((cyclopropylmethyl)(4-fluoro-3,5-dimethoxyphenyl)amino)cyclohexyl)(methyl)amino)-5-methyl-6-oxo-5,6-dihydro-1,5-naphthyridine-2-carbonitrile] | 10 to 100 nM | 100 to 1000 nM
2 | Cc1cc(N(CC2CC2)[C@H]2CC[C@H](N(C)c3c(C#N)c(=O)n(C)c4ccc(C#N)nc34)CC2)ccc1F [Example 125, trans-8-((4-((cyclopropylmethyl)(4-fluoro-3-methylphenyl)amino)cyclohexyl)(methyl)amino)-5-methyl-6-oxo-5,6-dihydro-1,5-naphthyridine-2,7-dicarbonitrile] | 100 to 1000 nM | 100 to 1000 nM
3 | Cc1cc(N(CC2CCC2)[C@H]2CC[C@H](N(C)c3c(C#N)c(=O)n(C)c4ccc(C#N)nc34)CC2)ccc1F [Example 126, trans-8-((-4-((cyclobutylmethyl)(4-fluoro-3-methylphenyl)amino)cyclohexyl)(methyl)amino)-5-methyl-6-oxo-5,6-dihydro-1,5-naphthyridine-2,7-dicarbonitrile] | 100 to 1000 nM | 100 to 1000 nM
4 | Cn1c(=O)c(C#N)c(N(C)[C@H]2CC[C@H](N(CC3CCC3)c3ccc(F)cc3C3CC3)CC2)c2nc(C#N)ccc21 [Example 127, trans-8-((-4-((cyclobutylmethyl)(2-cyclopropyl-4-fluorophenyl)amino)cyclohexyl)(methyl)amino)-5-methyl-6-oxo-5,6-dihydro-1,5-naphthyridine-2,7-dicarbonitrile] | 10 to 100 nM | 100 to 1000 nM
5 | Cc1ccc(N(CC2CC2)[C@H]2CC[C@H](N(C)c3c(C#N)c(=O)n(C)c4ccc(C#N)nc34)CC2)cc1 [Example 128, trans-8-((-4-((cyclopropylmethyl)(p-tolyl)amino)cyclohexyl)(methyl)amino)-5-methyl-6-oxo-5,6-dihydro-1,5-naphthyridine-2,7-dicarbonitrile] | 100 to 1000 nM | 100 to 1000 nM
6 | Cc1ccc(N(CC2CCC2)[C@H]2CC[C@H](N(C)c3c(C#N)c(=O)n(C)c4ccc(C#N)nc34)CC2)cc1 [Example 129, trans-8-((-4-((cyclobutylmethyl)(p-tolyl)amino)cyclohexyl)(methyl)amino)-5-methyl-6-oxo-5,6-dihydro-1,5-naphthyridine-2,7-dicarbonitrile] | 100 to 1000 nM | 100 to 1000 nM
7 | Cc1nc(F)ccc1N(CC1CCOC1)[C@H]1CC[C@H](N(C)c2c(C#N)c(=O)n(C)c3ccc(C#N)nc23)CC1 (stereo partly drawn) [Example 130, trans-8-((-4-((6-fluoro-2-methylpyridin-3-yl) ((tetrahydrofuran-3-yl)methyl)amino)cyclohexyl) (methyl)amino)-5-methyl-6-oxo-5,6-dihydro-1,5-naphthyridine-2,7-dicarbonitrile] | 100 to 1000 nM | 100 to 1000 nM
8 | Cc1nc(F)ccc1N(CC1CCC1)[C@H]1CC[C@H](N(C)c2c(C#N)c(=O)n(C)c3ccc(C#N)nc23)CC1 [Example 131, trans-8-((-4-((cyclobutylmethyl)(6-fluoro-2-methylpyridin-3-yl)amino)cyclohexyl)(methyl)amino)-5-methyl-6-oxo-5,6-dihydro-1,5-naphthyridine-2,7-dicarbonitrile] | 100 to 1000 nM | 100 to 1000 nM
9 | Cn1c(=O)c(C#N)c(N(C)[C@H]2CC[C@H](N(CC3CCC3)c3cccc4c3OCO4)CC2)c2nc(Cl)ccc21 [Example 132, trans-4-((-4-(benzo[d][1,3]dioxol-4-yl(cyclobutylmethyl)amino)cyclohexyl)(methyl)amino)-6-chloro-1-methyl-2-oxo-1,2-dihydro-1,5-naphthyridine-3-carbonitrile] | 10 to 100 nM | < 10 nM
10 | Cn1c(=O)cc(N(C)[C@H]2CC[C@@H](N(CC3CCC3)c3ccc4c(c3)OC(F)(F)O4)CC2)c2nc(C#N)ccc21 [Example 133, cis-8-((-4-((cyclobutylmethyl)(2,2-difluorobenzo[d] [1,3]dioxol-5-yl)amino)cyclohexyl)(methyl)amino)-5-methyl-6-oxo-5,6-dihydro-1,5-naphthyridine-2-carbonitrile] | 100 to 1000 nM | 10 to 100 nM
11 | Cn1c(=O)cc(N(C)[C@H]2CC[C@@H](N(CC3CCC3)c3cc(F)cc(F)c3)CC2)c2nc(C#N)ccc21 [Example 134, cis-8-((-4-((cyclobutylmethyl)(3,5-difluorophenyl)amino)cyclohexyl)(methyl)amino)-5-methyl-6-oxo-5,6-dihydro-1,5-naphthyridine-2-carbonitrile] | 100 to 1000 nM | 10 to 100 nM
12 | Cn1c(=O)c(C#N)c(N(C)[C@H]2CC[C@H](N(CC3CC3)c3ccc(F)c(OC4CC4)c3)CC2)c2nc(C#N)ccc21 [Example 135, trans-8-((-4-((3-cyclopropoxy-4-fluorophenyl) (cyclopropylmethyl)amino)cyclohexyl)(methyl)amino)-5-methyl-6-oxo-5,6-dihydro-1,5-naphthyridine-2,7-dicarbonitrile] | 10 to 100 nM | 10 to 100 nM
13 | Cc1cc(F)ccc1N(CC1CCCCO1)[C@H]1CC[C@H](N(C)c2c(C#N)c(=O)n(C)c3ccc(C#N)nc23)CC1 (stereo partly drawn) [Example 136, trans-8-((-4-((4-fluoro-2-methylphenyl)((tetrahydro-2H-pyran-2-yl)methyl)amino)cyclohexyl)(methyl)amino)-5-methyl-6-oxo-5,6-dihydro-1,5-naphthyridine-2,7-dicarbonitrile] | 10 to 100 nM | 100 to 1000 nM
14 | Cc1cc(F)c(F)cc1N(CC1CCC1)[C@H]1CC[C@H](N(C)c2c(C#N)c(=O)n(C)c3ccc(Cl)nc23)CC1 [Example 137, trans-6-chloro-4-((4-((cyclobutylmethyl)(4,5-difluoro-2-methylphenyl)amino)cyclohexyl)(methyl)amino)-1-methyl-2-oxo-1,2-dihydro-1,5-naphthyridine-3-carbonitrile] | ≥ 1000 nM | ≥ 1000 nM
15 | Cc1cc(F)c(F)cc1N(CC1CCC1)[C@H]1CC[C@H](N(C)c2c(C#N)c(=O)n(C)c3ccc(C#N)nc23)CC1 [Example 138, trans-8-((4-((cyclobutylmethyl)(4,5-difluoro-2-methylphenyl)amino)cyclohexyl)(methyl)amino)-5-methyl-6-oxo-5,6-dihydro-1,5-naphthyridine-2,7-dicarbonitrile] | ≥ 1000 nM | ≥ 1000 nM
16 | Cc1nc(F)ccc1N(CC1CCC1)[C@H]1CC[C@H](N(C)c2c(C#N)c(=O)n(C)c3ccc(Cl)nc23)CC1 [Example 139, trans-6-chloro-4-((-4-((cyclobutylmethyl)(6-fluoro-2-methylpyridin-3-yl)amino)cyclohexyl)(methyl)amino)-1-methyl-2-oxo-1,2-dihydro-1,5-naphthyridine-3-carbonitrile] | ≥ 1000 nM | ≥ 1000 nM
17 | Cc1cc(F)ncc1N(CC1CCC1)[C@H]1CC[C@H](N(C)c2c(C#N)c(=O)n(C)c3ccc(C#N)nc23)CC1 [Example 140, trans-8-((-4-((cyclobutylmethyl)(6-fluoro-4-methylpyridin-3-yl)amino)cyclohexyl)(methyl)amino)-5-methyl-6-oxo-5,6-dihydro-1,5-naphthyridine-2,7-dicarbonitrile] | 10 to 100 nM | 100 to 1000 nM
18 | Cn1c(=O)c(C#N)c(N(C)[C@H]2CC[C@@H](N(CC3COCCO3)c3ccc(F)cc3)CC2)c2nc(C#N)ccc21 (stereo partly drawn) [Example 141, cis-8-((-4-(((1,4-dioxan-2-yl)methyl)(4-fluorophenyl)amino)cyclohexyl)(methyl)amino)-5-methyl-6-oxo-5,6-dihydro-1,5-naphthyridine-2,7-dicarbonitrile] | 10 to 100 nM | < 10 nM
19 | Cn1c(=O)c(C#N)c(N(C)[C@H]2CC[C@@H](N(C[C@@H]3CCCOC3)c3ccc4c(c3)OCO4)CC2)c2nc(C#N)ccc21 [Example 142, cis-8-((-4-(benzo[d][1,3]dioxol-5-yl(((S)-tetrahydro-2H-pyran-3-yl)methyl)amino)cyclohexyl)(methyl)amino)-5-methyl-6-oxo-5,6-dihydro-1,5-naphthyridine-2,7-dicarbonitrile] | 10 to 100 nM | 10 to 100 nM
20 | Cn1c(=O)c(C#N)c(N(C)[C@H]2CC[C@@H](N(C[C@H]3CCCOC3)c3ccc4c(c3)OCO4)CC2)c2nc(C#N)ccc21 [Example 143, cis-8-((-4-(benzo[d][1,3]dioxol-5-yl(((R)-tetrahydro-2H-pyran-3-yl)methyl)amino)cyclohexyl)(methyl)amino)-5-methyl-6-oxo-5,6-dihydro-1,5-naphthyridine-2,7-dicarbonitrile] | 10 to 100 nM | < 10 nM
21 | Cc1cc(F)ccc1N(CC1CC1)[C@H]1CC[C@@H](N(C)c2cc(=O)n(C)c3ccc(C#N)nc23)CC1 [Example 144, cis-8-((4-((cyclopropylmethyl)(4-fluoro-2-methylphenyl)amino)cyclohexyl)(methyl)amino)-5-methyl-6-oxo-5,6-dihydro-1,5-naphthyridine-2-carbonitrile] | 100 to 1000 nM | 100 to 1000 nM
22 | Cc1cc2c(cc1N(CC1CCC1)[C@H]1CC[C@H](N(C)c3c(C#N)c(=O)n(C)c4ccc(Cl)nc34)CC1)OCO2 [Example 145, trans-6-chloro-4-((4-((cyclobutylmethyl)(6-methylbenzo[d][1,3]dioxol-5-yl)amino)cyclohexyl) (methyl)amino)-1-methyl-2-oxo-1,2-dihydro-1,5-naphthyridine-3-carbonitrile] | ≥ 1000 nM | ≥ 1000 nM
23 | Cc1cc2c(cc1N(CC1CCC1)[C@H]1CC[C@H](N(C)c3c(C#N)c(=O)n(C)c4ccc(C#N)nc34)CC1)OCO2 [Example 146, trans-8-((4-((cyclobutylmethyl)(6-methylbenzo[d] [1,3]dioxol-5-yl)amino)cyclohexyl)(methyl)amino)-5-methyl-6-oxo-5,6-dihydro-1,5-naphthyridine-2,7-dicarbonitrile] | 100 to 1000 nM | 100 to 1000 nM
